molecular target: Histone-lysine N-methyltransferase, H3 lysine-79 specific (Homo sapiens, UniProt Q8TEK3); assay: Inhibition of recombinant human N-terminal GST-tagged DOT1L (2 to 416 residues) expressed in Escherichia coli assessed as reduction in histone H3 lysine-N-methyltransferase activity using nucleosomes after 3 hrs in presence of SAM by AlphLisa assay
Sequence (Q8TEK3 whole entry, the tested form may be a part): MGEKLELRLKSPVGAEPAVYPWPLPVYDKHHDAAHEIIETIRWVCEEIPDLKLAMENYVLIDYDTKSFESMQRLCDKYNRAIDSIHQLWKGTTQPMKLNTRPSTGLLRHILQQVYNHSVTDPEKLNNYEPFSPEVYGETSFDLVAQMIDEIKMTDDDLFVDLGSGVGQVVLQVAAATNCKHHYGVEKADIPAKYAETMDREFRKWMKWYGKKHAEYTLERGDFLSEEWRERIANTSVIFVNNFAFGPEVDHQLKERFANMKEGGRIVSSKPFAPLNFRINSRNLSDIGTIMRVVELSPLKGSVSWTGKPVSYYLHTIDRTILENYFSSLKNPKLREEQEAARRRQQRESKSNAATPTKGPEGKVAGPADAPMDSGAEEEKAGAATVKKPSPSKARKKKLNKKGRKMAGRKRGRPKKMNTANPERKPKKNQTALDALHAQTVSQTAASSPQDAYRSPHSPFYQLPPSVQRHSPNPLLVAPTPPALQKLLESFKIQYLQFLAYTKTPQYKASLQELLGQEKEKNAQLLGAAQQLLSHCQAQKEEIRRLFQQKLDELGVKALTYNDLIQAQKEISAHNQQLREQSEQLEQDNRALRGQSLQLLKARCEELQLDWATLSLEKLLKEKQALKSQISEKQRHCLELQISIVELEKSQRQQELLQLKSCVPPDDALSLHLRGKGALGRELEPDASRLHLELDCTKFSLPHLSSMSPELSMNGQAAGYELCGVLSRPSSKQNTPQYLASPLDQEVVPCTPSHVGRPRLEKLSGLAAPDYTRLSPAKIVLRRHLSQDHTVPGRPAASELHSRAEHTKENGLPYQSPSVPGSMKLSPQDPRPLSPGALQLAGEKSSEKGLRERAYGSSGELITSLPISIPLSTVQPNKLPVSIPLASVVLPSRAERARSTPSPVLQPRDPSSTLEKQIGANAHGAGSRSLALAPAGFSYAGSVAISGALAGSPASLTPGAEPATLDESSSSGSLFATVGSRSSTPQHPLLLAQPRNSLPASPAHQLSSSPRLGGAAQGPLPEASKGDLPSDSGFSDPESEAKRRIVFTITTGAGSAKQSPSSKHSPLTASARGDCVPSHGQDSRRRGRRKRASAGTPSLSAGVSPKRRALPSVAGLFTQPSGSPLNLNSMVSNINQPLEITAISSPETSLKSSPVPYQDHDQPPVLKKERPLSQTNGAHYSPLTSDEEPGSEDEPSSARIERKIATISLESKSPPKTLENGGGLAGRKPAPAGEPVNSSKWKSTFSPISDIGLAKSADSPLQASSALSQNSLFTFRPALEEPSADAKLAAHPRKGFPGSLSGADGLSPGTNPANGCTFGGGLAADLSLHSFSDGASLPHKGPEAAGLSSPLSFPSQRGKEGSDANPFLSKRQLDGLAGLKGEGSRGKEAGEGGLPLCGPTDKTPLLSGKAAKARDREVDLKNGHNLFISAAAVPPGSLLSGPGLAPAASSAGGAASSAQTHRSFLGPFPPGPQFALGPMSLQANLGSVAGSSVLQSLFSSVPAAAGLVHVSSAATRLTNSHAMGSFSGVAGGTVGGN

Point of comparison: `C[C@@H]([C@H]1O[C@@H](n2cnc3c(N)ncnc32)[C@H](O)[C@@H]1O)N(C1CCC1)C1CC(CCc2nc3cc(C(C)(C)C)ccc3[nH]2)C1` (some centres undefined), IC50 1430 nM. Against it:
- C[C@H](NC1CC(CCc2nc3cc(C(C)(C)C)ccc3[nH]2)C1)[C@H]1O[C@@H](n2cnc3c(N)ncnc32)[C@H](O)[C@@H]1O (some centres undefined) — 2.1-fold lower, 690 nM
- CC(C)N(CCCNC(=O)Nc1ccc(C(C)(C)C)cc1)[C@@H](C)[C@H]1O[C@@H](n2cnc3c(N)ncnc32)[C@H](O)[C@@H]1O — 230-fold lower, 6.34 nM
- C[C@@H]([C@H]1O[C@@H](n2cnc3c(N)ncnc32)[C@H](O)[C@@H]1O)N(C1CC(CCc2nc3cc(C(C)(C)C)ccc3[nH]2)C1)C1CC(CCc2nc3cc(C(C)(C)C)ccc3[nH]2)C1 (some centres undefined) — 1.5-fold higher, 2160 nM
